Patent US5547940A, “Method for stimulating proliferation of colon cells using POMC76-103” (Ludwig Institute for Cancer Research, priority 1994, dated 1996)
Values joined by “and” are separate entries in the source; they are usually repeats but may differ in a detail not shown here. Equal values may be shown once. Read-outs that look alike come from different tables or passages of the source. Values belong to the molecule of their own block, whether it stands above or below them. Peptide text beside a SMILES is read from it.

Tests used:
LIM 1215 cells [1] = test system: LIM 1215 cells
Source text: The material was synthesized, using art recognized techniques, and was then used in a mitogenic assay on LIM 1215 cells, following Nice et al., J. Biol. Chem. 266: 14425-14430 (1991), which is incorporated by reference in its entirety.

LIM 1215 cells [2] = assay: Colony formation of LIM 1215 cells in semi-solid agar; type: cell-based, human; settings: rhEGF 10 ng/ml alone
Method: Colony formation using various factors was studied. Cells of cell line LIM 1215 were cloned in semi-solid agar (0.3%) following Whitehead et al., Int. J. Canc. 46:858-863 (1990). Briefly, the cells were trypsinized and resuspended in RPMI 1640 plus 5% FCS. Cells in the suspension were counted and then resuspended in a mixture of 0.3% agar in RPMI 1640 plus 10% FCS (40° C.), at a concentration of 10^4 cells per ml. The mixture was plated in 1.5 volumes in 35 mm^2 dishes, and allowed to set. Plates were then incubated at 37° C. in 5% CO2 and 100% humidity for 14 days. A solution of 0.1% crystal violet was aded to the plates, and colonies of more than 40 cells were counted.
Conditioned medium was prepared by incubating confluent monolayers of colon carcinoma cell lines with fresh RPMI 1640 plus 5% FCS for 48 hours. Medium was then removed, sterilized by filtration, and added to the agar plates at a final concentration of 10% (v/v). […] See Whitehead, supra.
The effect of the POMC76-103, alone and combination with epidermal growth factor (EGF) was investigated. The peptide and recombinant human EGF ("rhEGF") were tested alone, and combined, in colony formation assays as described supra.

colonic crypt cells = assay: Growth factors together with LIM 2537 conditioned medium on colonic crypt cells (synergism); type: cell-based; settings: tested on murine colonic crypt cells
Method: In another set of experiments, human colonic crypt cells were tested with conditioned medium from LIM 2537, together with different growth factors.

EC50 (LIM 1215 cells [1]): ~0.075 nM
Molecule: CSCC[C@H](NC(=O)[C@@H](NC(=O)[C@H](Cc1ccc(O)cc1)NC(=O)[C@@H](N)CCCCN)C(C)C)C(=O)NCC(=O)N[C@@H](Cc1c[nH]cn1)C(=O)N[C@@H](Cc1ccccc1)C(=O)N[C@@H](CCCNC(=N)N)C(=O)N[C@@H](Cc1c[nH]c2ccccc12)C(=O)N[C@@H](CC(=O)O)C(=O)N[C@@H](CCCNC(=N)N)C(=O)N[C@@H](Cc1ccccc1)C(=O)NCC(=O)N[C@@H](CCCNC(=N)N)C(=O)N[C@@H](CCCNC(=N)N)C(=O)N[C@@H](CC(N)=O)C(=O)NCC(=O)N[C@@H](CO)C(=O)N[C@@H](CO)C(=O)N[C@@H](CO)C(=O)N[C@@H](CO)C(=O)NCC(=O)N[C@H](C(=O)NCC(=O)NCC(=O)N[C@@H](C)C(=O)N[C@@H](C)C(=O)N[C@@H](CCC(N)=O)C(=O)O)C(C)C [POMC76-103] (H-KYVMGHFRWDRFGRRNGSSSSGVGGAAQ-OH)

Molecule: rhEGF: recombinant human EGF
LIM 1215 Colony Stimulating Activity, Colonies (LIM 1215 cells [2]): 300 and 320

EC50 (LIM 1215 cells [1]; mitogenic assay, LIM 1215 cells): 0.05 nM
Molecule: EGF: epidermal growth factor
synergism with the LIM 2537 conditioned medium (colonic crypt cells): None of these factors showed any synergism
stimulation index (LIM 1215 cells [1]; LIM 1215 cells, FIGS. 16A/16B): 8 fold

Molecule: IL-6: interleukin 6
synergism with the LIM 2537 conditioned medium (colonic crypt cells): None of these factors showed any synergism

Molecule: PDGF
synergism with the LIM 2537 conditioned medium (colonic crypt cells): None of these factors showed any synergism
